# Test results from paper PMC10564737, “Structure-based design of a phosphotyrosine-masked covalent ligand targeting the E3 ligase SOCS2” (Nature Communications, 2023).
# Several values for one entry are separate records, joined by “and”; a condition that tells them apart may be missing. Equal values may be shown once.
# What was measured:
# SBC2 [1] = target: T1, SBC2 (Homo sapiens, UniProt O14508); assay: 19F ligand-observed displacement (CPMG) NMR assay; type: binding; details: Table 1, n = 1
# T1 construct: SOCS2 (amino acids 32–198); His6 (N, cleaved yes); made in house; host or cells: E. coli BL21(DE3)
# Text: First, we decided to optimize the N-terminal region of 1 while maintaining the N-methylamide group at the C-terminus. To generate analogs rapidly, we employed a solid phase synthesis using methyl indole AM resin. After Fmoc deprotection, the resin was loaded with Fmoc-Tyr (PO(OBzl)2)-OH[29]. Subsequent coupling with various commercially available carboxylic acids and cleavage with TFA allowed the rapid synthesis of N-methylcarboxamide phosphotyrosines (Supplementary Fig. 1). […] Binding affinities of the synthesized compounds for SOCS2 were measured via two orthogonal biophysical binding assays: (1) surface plasmon resonance (SPR) with SBC2 immobilized on the chip (Supplementary Fig. 7); and (2) ^19F ligand-observed displacement NMR assays, providing two orthogonal biophysical measurements of dissociation constants (KD)[29],[31]. We found an excellent correlation between the KD values measured via the two techniques (Table 1). […]
# Experiments were performed using an Avance III 500 MHz Bruker spectrometer equipped with a 5 mm CPQCI 1H/19 F/13 C/15 N/D Z-GRD cryoprobe at 298 K as described previously. Spectra were recorded using 80 scans of a CPMG pulse sequence that attenuates broad resonances. […] All NMR data were processed and analyzed using TopSpin (Bruker). The dissociation constant was calculated as described previously.
# SBC2 [2] = target: T1, SBC2; assay: Surface plasmon resonance (SPR) with SBC2 immobilized on the chip; type: binding
# Text: First, we decided to optimize the N-terminal region of 1 while maintaining the N-methylamide group at the C-terminus. To generate analogs rapidly, we employed a solid phase synthesis using methyl indole AM resin. After Fmoc deprotection, the resin was loaded with Fmoc-Tyr (PO(OBzl)2)-OH[29]. Subsequent coupling with various commercially available carboxylic acids and cleavage with TFA allowed the rapid synthesis of N-methylcarboxamide phosphotyrosines (Supplementary Fig. 1). We introduced different substituents at the N-terminus to cover a range of physicochemical properties (e.g. alicyclic, heterocyclic, aromatic with electron-withdrawing and electron-donating groups) to maximize potential interactions (see Table 1 for representative examples). Binding affinities of the synthesized compounds for SOCS2 were measured via two orthogonal biophysical binding assays: (1) surface plasmon resonance (SPR) with SBC2 immobilized on the chip (Supplementary Fig. 7); and (2) ^19F ligand-observed displacement NMR assays, providing two orthogonal biophysical measurements of dissociation constants (KD)[29],[31]. We found an excellent correlation between the KD values measured via the two techniques (Table 1). Para-substituted benzyl moieties yielded the greatest contributions to binding affinity and there were only slight differences between electron-withdrawing groups such as a methyl ester and electron-donating such as methoxy group.
# SPR experiments were performed using a Biacore S200 instrument (GE Healthcare) in 20 mM HEPES pH 7.5, 150 mM NaCl, 1 mM TCEP, 0.005% Tween20, 2% DMSO buffer at 10 °C. Biotinylated SBC2 was immobilized onto a chip surface (the final surface density of biotinylated SBC2 was ~3000–4000 RU). AviTagged-SBC was biotinylated using BirA enzyme as per manufacturer’s protocol (Avidity). Compounds were serially diluted in the running buffer and injected individually: contact time 60 s, flow rate 30 μL/min, dissociation time 150 s, using a stabilization period of 30 s and syringe wash (50% DMSO) between injections. Data analysis was carried out using Biacore Evaluation Software (GE Healthcare). All data were double-referenced for reference surface and blank injection. The processed sensograms were fit to a steady-state affinity using a 1:1 binding model for KD estimation.
# SBC2 [3] = target: T1, SBC2; assay: Isothermal titration calorimetry (ITC), direct titration; type: binding; details: for Kd: ITC KD, direct ITC, 298 K
# Experimental: Experiments were performed with ITC200 instrument (Malvern) in 100 mM HEPES pH 7.5, 50 mM NaCl, 0.5 mM TCEP at 298 K. The ITC titration consisted of 0.4 μl initial injection (discarded during data analysis) followed by 19 of 2 μl injections at 120 s interval between injections. 1 mM of the ligands in 2–4% DMSO were titrated into 100 μM SBC2. […] Binding data was subtracted from a control titration where ligand was titrated into buffer, and fitted using a one-set-of-site binding model to obtain dissociation constant (Kd), binding enthalpy (ΔH), and stoichiometry (N) using MicroCal PEAQ-ITC Analysis Software1.1.0.1262 and MicroCal ITC-ORIGIN Analysis Software 7.0 (Malvern).
# [4] = target: GHR pY595 peptide (Homo sapiens) (UniProt P10912); details: cited from earlier work
# [5] = Table 2, second-round library, n = 1
# T1 sequence (O14508 32-198): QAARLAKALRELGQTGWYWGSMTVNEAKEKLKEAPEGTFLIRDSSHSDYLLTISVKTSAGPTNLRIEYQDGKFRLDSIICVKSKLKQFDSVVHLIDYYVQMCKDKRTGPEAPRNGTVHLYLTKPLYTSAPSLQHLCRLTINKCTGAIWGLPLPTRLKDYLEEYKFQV
# T1 sequence (Q15370 1-104 partner limits assumed): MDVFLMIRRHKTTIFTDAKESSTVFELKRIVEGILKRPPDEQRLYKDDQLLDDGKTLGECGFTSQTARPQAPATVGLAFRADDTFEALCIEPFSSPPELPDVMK
# T1 sequence (Q15369 17-112 partner limits assumed): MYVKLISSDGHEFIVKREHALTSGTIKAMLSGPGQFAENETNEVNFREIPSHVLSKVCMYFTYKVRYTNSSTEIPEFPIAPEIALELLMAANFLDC
# SOCS2 SH2, sequence (O14508 45-159): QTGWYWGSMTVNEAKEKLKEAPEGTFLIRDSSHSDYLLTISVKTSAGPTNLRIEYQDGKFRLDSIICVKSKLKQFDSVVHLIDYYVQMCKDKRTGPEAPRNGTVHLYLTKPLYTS
# GHR pY595 peptide (Homo sapiens), sequence (P10912 whole entry, looked up, tested part not stated): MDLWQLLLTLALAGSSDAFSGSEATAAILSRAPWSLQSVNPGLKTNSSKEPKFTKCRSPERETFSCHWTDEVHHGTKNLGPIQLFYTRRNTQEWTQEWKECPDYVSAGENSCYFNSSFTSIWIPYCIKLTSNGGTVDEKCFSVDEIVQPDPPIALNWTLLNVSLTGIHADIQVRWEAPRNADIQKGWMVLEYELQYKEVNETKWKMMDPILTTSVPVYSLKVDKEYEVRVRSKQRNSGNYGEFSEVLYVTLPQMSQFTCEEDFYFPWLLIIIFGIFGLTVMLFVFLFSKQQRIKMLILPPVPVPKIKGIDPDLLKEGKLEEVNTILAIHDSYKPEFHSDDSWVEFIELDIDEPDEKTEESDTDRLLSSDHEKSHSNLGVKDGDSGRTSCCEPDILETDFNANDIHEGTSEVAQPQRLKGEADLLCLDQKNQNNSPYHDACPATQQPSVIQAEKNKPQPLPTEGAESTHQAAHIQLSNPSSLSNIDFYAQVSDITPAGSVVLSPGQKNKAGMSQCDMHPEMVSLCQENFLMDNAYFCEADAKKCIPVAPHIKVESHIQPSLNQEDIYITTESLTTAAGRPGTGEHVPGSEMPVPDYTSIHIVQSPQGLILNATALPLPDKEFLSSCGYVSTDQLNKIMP
Compound,Kd (SBC2 [1]) [µM],"Kd (SBC2 [2]; Table 1, n = 1) [µM]",Kd (SBC2 [3]),Kd (SBC2 [2]; [5]) [µM],ITC ΔG (SBC2 [3]) [kcal/mol],ITC −TΔS (SBC2 [3]) [kcal/mol],further results
CNC(=O)[C@H](Cc1ccc(OP(=O)(O)O)cc1)NC(C)=O [Compound 1],186,269,192000 nM and 190000 nM,,,,weaker binding than the full phosphorylated peptide (SBC2 [3]): 100 fold
SOCS2 SH2 (from UniProt O14508),,,,,,,Kd [4]: 1100 nM
CNC(=O)[C@H](Cc1ccc(OP(=O)(O)O)cc1)NC(=O)Cc1ccc(F)cc1 [Compound 5],32,49,,,,,
"O=C(Cc1ccc(F)cc1)N[C@@H](Cc1ccc(OP(=O)(O)O)cc1)C(=O)NCc1ccc(F)cc1 [Compound 9, (S)-4-(3-((4-fluorobenzyl)amino)-2-(2-(4-fluorophenyl)acetamido)-3-oxopropyl)phenyl phosphate]",,,2600 nM,4.2,-7.65,-3.55,improvement of binding affinity compared to 5 (SBC2 [2]; SPR): 10 fold
"CCc1cc(CNC(=O)[C@H](Cc2ccc(OP(=O)(O)O)cc2)NC(=O)Cc2ccc(F)cc2)ccc1F [Compound 12, (S)-4-(3-((3-ethyl-4-fluorobenzyl)amino)-2-(2-(4-fluorophenyl)acetamido)-3-oxopropyl)phenyl phosphate]",,,500 nM and 510 nM,2.2,-8.59,-0.43,ITC ΔH (SBC2 [3]): -8.16 kcal/mol
